In patent US7220744B2, “Monocyclic substituted phenyl methanones” (Hoffman-La Roche Inc., priority 2005, dated 2007):

Molecular target: T1, mGlyT-1b (Mus musculus, UniProt P28571)
T1 construct: host or cells: Flp-in-CHO cells (vendor and catalogue number are those of the host cell line)
T1 sequence (P28571 1-651 isoform P28571-2): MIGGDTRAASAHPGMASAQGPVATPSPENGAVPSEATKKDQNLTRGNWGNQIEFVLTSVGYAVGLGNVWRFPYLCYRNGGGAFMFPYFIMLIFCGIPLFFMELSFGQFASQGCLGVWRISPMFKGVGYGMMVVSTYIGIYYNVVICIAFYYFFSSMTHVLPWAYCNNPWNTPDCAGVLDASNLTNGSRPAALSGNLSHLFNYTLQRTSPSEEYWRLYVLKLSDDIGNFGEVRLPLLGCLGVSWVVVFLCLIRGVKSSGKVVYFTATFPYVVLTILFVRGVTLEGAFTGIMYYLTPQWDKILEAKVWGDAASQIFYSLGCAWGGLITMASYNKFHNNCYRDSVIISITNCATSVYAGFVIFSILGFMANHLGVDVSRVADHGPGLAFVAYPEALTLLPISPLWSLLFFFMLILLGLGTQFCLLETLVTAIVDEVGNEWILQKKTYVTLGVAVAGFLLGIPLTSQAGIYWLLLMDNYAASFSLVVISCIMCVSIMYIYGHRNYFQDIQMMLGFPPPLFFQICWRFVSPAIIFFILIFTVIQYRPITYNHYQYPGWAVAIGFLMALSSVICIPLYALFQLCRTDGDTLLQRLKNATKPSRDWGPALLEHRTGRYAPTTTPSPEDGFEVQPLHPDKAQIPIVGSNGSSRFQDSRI
Test: Glycine Uptake Inhibition Assay (mGlyT-1b)
Assay type: cell-based
Settings: inhibition of [3H]-glycine uptake in Flp-in-CHO cells transfected with mGlyT-1b cDNA; 20 min preincubation at 22° C.; read-out: IC50 (μM) at GlyT-1
Protocol: DMEM complete medium: Nutrient mixture F-12 (Gibco Life-technologies), fetal bovine serum (FBS) 5%, (Gibco life technologies), Penicillin/Streptomycin 1% (Gibco life technologies), Hygromycin 0.6 mg/ml (Gibco life technologies), Glutamine 1 mM Gibco life technologies)
Uptake buffer (UB): 150 mM NaCl, 10 mM Hepes-Tris, pH 7.4, 1 mM CaCl2, 2.5 mM KCl, 2.5 mM MgSO4, 10 mM (+) D-glucose.
Flp-in™-CHO (Invitrogen Cat n° R758-07) cells stably transfected with mGlyT1b cDNA.
Glycine Uptake Inhibition Assay (mGlyT-1b)
On day 1 mammalian cells, (Flp-in™-CHO), transfected with mGlyT-1b cDNA, were plated at the density of 40,000 cells/well in complete F-12 medium, without hygromycin in 96-well culture plates. On day 2, the medium was aspirated and the cells were washed twice with uptake buffer (UB). The cells were then incubated for 20 min at 22° C. with either (i) no potential competitor, (ii) 10 mM non-radioactive glycine, (iii) a concentration of a potential inhibitor. A range of concentrations of the potential inhibitor was used to generate data for calculating the concentration of inhibitor resulting in 50% of the effect (e.g. IC50, the concentration of the competitor inhibiting glycine uptake of 50%). A solution was then immediately added containing [^3H]-glycine 60 nM (11–16 Ci/mmol) and 25 μM non-radioactive glycine. The plates were incubated with gentle shaking and the reaction was stopped by aspiration of the mixture and washing (three times) with ice-cold UB. The cells were lysed with scintillation liquid, shaken 3 hours and the radioactivity in the cells was counted using a scintillation counter.

Compound	IC50 [µM]
CC(C)Oc1ccc(S(C)(=O)=O)cc1C(=O)N1CCN(c2ncc(S(=O)(=O)c3ccccc3)s2)CC1 [Example 4, [4-(5-Benzenesulfonyl-thiazol-2-yl)-piperazin-1-yl]-(2-isopropoxy-5-methanesulfonyl-phenyl)-methanone]	0.061
CC(Oc1ccc(S(C)(=O)=O)cc1C(=O)N1CCN(c2ncc(C#N)s2)CC1)C(F)(F)F (stereo not drawn) [Example 10, 2-{4-[5-Methanesulfonyl-2-(2,2,2-trifluoro-1-methyl-ethoxy)-benzoyl]-piperazin-1-yl}-thiazole-5-carbonitrile]	0.082
CS(=O)(=O)c1ccc(OCC2CCC2)c(C(=O)N2CCN(c3ncc(C#N)s3)CC2)c1 [Example 14, 2-[4-(2-Cyclobutylmethoxy-5-methanesulfonyl-benzoyl)-piperazin-1-yl]-thiazole-5-carbonitrile]	0.083
CC(C)COc1ccc(S(C)(=O)=O)cc1C(=O)N1CCN(c2ncc(C#N)s2)CC1 [Example 16, 2-[4-(2-Isobutoxy-5-methanesulfonyl-benzoyl)-piperazin-1-yl]-thiazole-5-carbonitrile]	0.065
CC(C)(C)COc1ccc(S(C)(=O)=O)cc1C(=O)N1CCN(c2ncc(C#N)s2)CC1 [Example 19, 2-{4-[2-(2,2-Dimethyl-propoxy)-5-methanesulfonyl-benzoyl]-piperazin-1-yl}-thiazole-5-carbonitrile]	0.043
CC(C)(C)COc1ccc(S(C)(=O)=O)cc1C(=O)N1CCN(c2ncc(S(=O)(=O)c3ccccc3)s2)CC1 [Example 29, [4-(5-Benzenesulfonyl-thiazol-2-yl)-piperazin-1-yl]-[2-(2,2-dimethyl-propoxy)-5-methanesulfonyl-phenyl]-methanone]	0.017
CS(=O)(=O)c1ccc(OC2CCCC2)c(C(=O)N2CCN(c3ncc(S(=O)(=O)c4ccccc4)s3)CC2)c1 [Example 30, [4-(5-Benzenesulfonyl-thiazol-2-yl)-piperazin-1-yl]-(2-cyclopentyloxy-5-methanesulfonyl-phenyl)-methanone]	0.023
CC(C)COc1ccc(S(C)(=O)=O)cc1C(=O)N1CCN(c2ncc(S(=O)(=O)c3ccccc3)s2)CC1 [Example 31, [4-(5-Benzenesulfonyl-thiazol-2-yl)-piperazin-1-yl]-(2-isobutoxy-5-methanesulfonyl-phenyl)-methanone]	0.024
CCCCS(=O)(=O)c1cnc(N2CCN(C(=O)c3cc(S(C)(=O)=O)ccc3OC(C)C(F)(F)F)CC2)s1 (stereo not drawn) [Example 39, {4-[5-(Butane-1-sulfonyl)-thiazol-2-yl]-piperazin-1-yl}-[5-methanesulfonyl-2-(2,2,2-trifluoro-1-methyl-ethoxy)-phenyl]-methanone]	0.07
CCCCS(=O)(=O)c1cnc(N2CCN(C(=O)c3cc(S(C)(=O)=O)ccc3OC3CCCC3)CC2)s1 [Example 41, {4-[5-(Butane-1-sulfonyl)-thiazol-2-yl]-piperazin-1-yl}-(2-cyclopentyloxy-5-methanesulfonyl-phenyl)-methanone]	0.018
CCCCS(=O)(=O)c1cnc(N2CCN(C(=O)c3cc(S(C)(=O)=O)ccc3OCC(C)(C)C)CC2)s1 [Example 42, {4-[5-(Butane-1-sulfonyl)-thiazol-2-yl]-piperazin-1-yl}-[2-(2,2-dimethyl-propoxy)-5-methanesulfonyl-phenyl]-methanone]	0.046
Cc1sc(N2CCN(C(=O)c3cc(S(C)(=O)=O)ccc3OC(C)C(F)(F)F)CC2)nc1C(F)(F)F (stereo not drawn) [Example 55, [5-Methanesulfonyl-2-(2,2,2-trifluoro-1-methyl-ethoxy)-phenyl]-[4-(5-methyl-4-trifluoromethyl-thiazol-2-yl)-piperazin-1-yl]-methanone]	0.073
CC(Oc1ccc(S(C)(=O)=O)cc1C(=O)N1CCN(c2ncc(C(F)(F)F)s2)CC1)C(F)(F)F (stereo not drawn) [Example 59, [5-Methanesulfonyl-2-(2,2,2-trifluoro-1-methyl-ethoxy)-phenyl]-[4-(5-trifluoromethyl-thiazol-2-yl)-piperazin-1-yl]-methanone]	0.098
CC(C)(Oc1ccc(S(C)(=O)=O)cc1C(=O)N1CCN(c2ncc(C(F)(F)F)s2)CC1)C(F)(F)F [Example 66, [5-Methanesulfonyl-2-(2,2,2-trifluoro-1,1-dimethyl-ethoxy)-phenyl]-[4-(5-trifluoromethyl-thiazol-2-yl)-piperazin-1-yl]-methanone]	0.061
C[C@H](Oc1ccc(S(C)(=O)=O)cc1C(=O)N1CCN(c2ncc(C(F)(F)F)s2)CC1)C(F)(F)F [Example 67, [5-Methanesulfonyl-2-((S)-2,2,2-trifluoro-1-methyl-ethoxy)-phenyl]-[4-(5-trifluoromethyl-thiazol-2-yl)-piperazin-1-yl]-methanone]	0.046
C[C@@H](Oc1ccc(S(C)(=O)=O)cc1C(=O)N1CCN(c2ncc(C(F)(F)F)s2)CC1)C(F)(F)F [Example 68, [5-Methanesulfonyl-2-((R)-2,2,2-trifluoro-1-methyl-ethoxy)-phenyl]-[4-(5-trifluoromethyl-thiazol-2-yl)-piperazin-1-yl]-methanone]	0.082
CC(Oc1ccc(S(C)(=O)=O)cc1C(=O)N1CCN(c2ncc(CC(F)(F)F)s2)CC1)C(F)(F)F (stereo not drawn) [Example 69, [5-Methanesulfonyl-2-(2,2,2-trifluoro-1-methyl-ethoxy)-phenyl]-{4-[5-(2,2,2-trifluoro-ethyl)-thiazol-2-yl]-piperazin-1-yl}-methanone]	0.056
C[C@H](Oc1ccc(S(C)(=O)=O)cc1C(=O)N1CCN(c2ncc(CC(F)(F)F)s2)CC1)C(F)(F)F [Example 70, [5-Methanesulfonyl-2-((S)-2,2,2-trifluoro-1-methyl-ethoxy)-phenyl]-{4-[5-(2,2,2-trifluoro-ethyl)-thiazol-2-yl]-piperazin-1-yl}-methanone]	0.057
C[C@@H](Oc1ccc(S(C)(=O)=O)cc1C(=O)N1CCN(c2ncc(CC(F)(F)F)s2)CC1)C(F)(F)F [Example 71, [5-Methanesulfonyl-2-((R)-2,2,2-trifluoro-1-methyl-ethoxy)-phenyl]-{4-[5-(2,2,2-trifluoro-ethyl)-thiazol-2-yl]-piperazin-1-yl}-methanone]	0.069
CCS(=O)(=O)c1ccc(OC(C)C(F)(F)F)c(C(=O)N2CCN(c3ncc(C(F)(F)F)s3)CC2)c1 (stereo not drawn) [Example 74, [5-Ethanesulfonyl-2-(2,2,2-trifluoro-1-methyl-ethoxy)-phenyl]-[4-(5-trifluoromethyl-thiazol-2-yl)-piperazin-1-yl]-methanone]	0.031
CC[C@@H](C)Oc1ccc(S(C)(=O)=O)cc1C(=O)N1CCN(c2ncc(C(F)(F)F)s2)CC1 [Example 77, (2-((R)-sec-Butoxy)-5-methanesulfonyl-phenyl)-[4-(5-trifluoromethyl-thiazol-2-yl)-piperazin-1-yl]-methanone]	0.1
CC[C@H](C)Oc1ccc(S(C)(=O)=O)cc1C(=O)N1CCN(c2ncc(C(F)(F)F)s2)CC1 [Example 78, (2-((S)-sec-Butoxy)-5-methanesulfonyl-phenyl)-[4-(5-trifluoromethyl-thiazol-2-yl)-piperazin-1-yl]-methanone]	0.089
Cc1nc(N2CCN(C(=O)c3cc(S(C)(=O)=O)ccc3OC(C)C)CC2)sc1C(F)(F)F [Example 79, (2-Isopropoxy-5-methanesulfonyl-phenyl)-[4-(4-methyl-5-trifluoromethyl-thiazol-2-yl)-piperazin-1-yl]-methanone]	0.067
Cc1nc(N2CCN(C(=O)c3cc(S(C)(=O)=O)ccc3O[C@@H](C)C(F)(F)F)CC2)sc1C(F)(F)F [Example 80, [5-Methanesulfonyl-2-((S)-2,2,2-trifluoro-1-methyl-ethoxy)-phenyl]-[4-(4-methyl-5-trifluoromethyl-thiazol-2-yl)-piperazin-1-yl]-methanone]	0.046
